Reference: PubChem BioAssay AID248 (DTP/NCI, 2004)
Values joined by “and” are separate entries in the source; they are usually repeats but may differ in a detail not shown here. Equal values may be shown once. Toxic doses and inconclusive results are not listed. Rule as the data show it: active = T/C of 150% or more; inactive = T/C below 125%.

Tested on: L1210 leukemia ip in BDF1 mice, survival T/C
Assay: NCI In Vivo Anticancer Drug Screen. Data for tumor model L1210 Leukemia (intraperitoneal) in B6D2F1 (BDF1) mice
Details: endpoint: mean survival time, higher = longer survival
Outline: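 Antitumor effect is assessed in tumor-bearing animals. Survival in the compound arm is compared with a vehicle-dosed control arm and expressed as their quotient.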

[1] = dose: 100.0 mg/kg/injection, schedule: Q01DX009 (ip), vehicle: Klucel (hydroxypropylcellulose) (HPC)
[2] = dose: 200.0 mg/kg/injection, schedule: Q01DX009 (ip), vehicle: Klucel (hydroxypropylcellulose) (HPC)
[3] = dose: 100.0 mg/kg/injection, schedule: Q01DX001 (ip), vehicle: carboxymethylcellulose (CMC)
[4] = dose: 200.0 mg/kg/injection, schedule: Q01DX001 (ip), vehicle: carboxymethylcellulose (CMC)

Measured: T/C

Cc1cc(C)c(C(C)(CS(C)(=O)=O)CS(C)(=O)=O)c(C)c1C(C)(CS(C)(=O)=O)CS(C)(=O)=O
inactive: [1] 105 % of control | [2] 102 % of control | dose: 400.0 mg/kg/injection, schedule: Q01DX009 (ip), vehicle: Klucel (hydroxypropylcellulose) (HPC) 105 % of control

CCOC=Nc1c(C)c[n+]([O-])nc1OC
inactive: dose: 12.5 mg/kg/injection, schedule: Q04DX002 (ip), vehicle: saline 102 % of control | dose: 25.0 mg/kg/injection, schedule: Q04DX002 (ip), vehicle: saline 102 % of control | dose: 50.0 mg/kg/injection, schedule: Q04DX002 (ip), vehicle: saline 98 % of control

COC(=O)/C=C(/CC(=O)OC)Nc1ccc(OC)cc1
inactive: dose: 100.0 mg/kg/injection, schedule: Q01DX001 (ip), vehicle: other 101 % of control | dose: 200.0 mg/kg/injection, schedule: Q01DX001 (ip), vehicle: other 101 % of control | dose: 400.0 mg/kg/injection, schedule: Q01DX001 (ip), vehicle: other 108 % of control

CC(=O)OCC1OC(OC(C)=O)C(NC(=O)N(C)C)C(OC(C)=O)C1OC(C)=O (centres undefined)
inactive: dose: 50.0 mg/kg/injection, schedule: Q04DX003 (ip), vehicle: saline 103 % of control | dose: 100.0 mg/kg/injection, schedule: Q04DX003 (ip), vehicle: Klucel (hydroxypropylcellulose) (HPC) 101 % of control | dose: 100.0 mg/kg/injection, schedule: Q04DX003 (ip), vehicle: saline 106 % of control | dose: 200.0 mg/kg/injection, schedule: Q04DX003 (ip), vehicle: Klucel (hydroxypropylcellulose) (HPC) 103 % of control | dose: 200.0 mg/kg/injection, schedule: Q04DX003 (ip), vehicle: saline 101 % of control | dose: 400.0 mg/kg/injection, schedule: Q04DX003 (ip), vehicle: Klucel (hydroxypropylcellulose) (HPC) 103 % of control

CCC1CCCCC1=O (centres undefined)
inactive: dose: 100.0 mg/kg/injection, schedule: Q01DX009 (ip), vehicle: saline with Tween-80 98 % of control | dose: 100.0 mg/kg/injection, schedule: Q04DX003 (ip), vehicle: saline with Tween-80 110 % of control | dose: 200.0 mg/kg/injection, schedule: Q01DX009 (ip), vehicle: saline with Tween-80 97 % of control | dose: 200.0 mg/kg/injection, schedule: Q04DX003 (ip), vehicle: saline with Tween-80 111 % of control | dose: 400.0 mg/kg/injection, schedule: Q01DX009 (ip), vehicle: saline with Tween-80 101 % of control | dose: 400.0 mg/kg/injection, schedule: Q04DX003 (ip), vehicle: saline with Tween-80 94 % of control

COc1ccc([N+](=O)[O-])cc1NC(=O)N(Cc1ccccc1)c1ccccc1
inactive: dose: 50.0 mg/kg/injection, schedule: Q01DX009 (ip), vehicle: Klucel (hydroxypropylcellulose) (HPC) 96 % of control | [1] 93 % of control | [2] 96 % of control

CCOC(=O)C(Cc1c[nH]c2ccccc12)[N+](=O)[O-] (centres undefined)
inactive: dose: 100.0 mg/kg/injection, schedule: Q04DX003 (sc), vehicle: olive oil, sesame oil, peanut oil 97 % of control | dose: 200.0 mg/kg/injection, schedule: Q04DX003 (sc), vehicle: olive oil, sesame oil, peanut oil 98 % of control | dose: 400.0 mg/kg/injection, schedule: Q04DX003 (sc), vehicle: olive oil, sesame oil, peanut oil 101 % of control

CCOC(=O)c1ccc(NS(=O)(=O)c2ccc(Cl)cc2[N+](=O)[O-])cc1
inactive: [3] 99 % of control | dose: 100.0 mg/kg/injection, schedule: Q01DX009 (ip), vehicle: carboxymethylcellulose (CMC) 112 % of control and 88 % of control | dose: 100.0 mg/kg/injection, schedule: Q04DX002 (ip), vehicle: carboxymethylcellulose (CMC) 96 % of control and 90 % of control | dose: 100.0 mg/kg/injection, schedule: Q04DX003 (ip), vehicle: carboxymethylcellulose (CMC) 105 % of control | [4] 101 % of control | dose: 200.0 mg/kg/injection, schedule: Q01DX009 (ip), vehicle: carboxymethylcellulose (CMC) 88 % of control and 89 % of control | dose: 200.0 mg/kg/injection, schedule: Q04DX002 (ip), vehicle: carboxymethylcellulose (CMC) 93 % of control and 91 % of control | dose: 200.0 mg/kg/injection, schedule: Q04DX003 (ip), vehicle: carboxymethylcellulose (CMC) 102 % of control | dose: 400.0 mg/kg/injection, schedule: Q01DX001 (ip), vehicle: carboxymethylcellulose (CMC) 103 % of control | dose: 400.0 mg/kg/injection, schedule: Q01DX009 (ip), vehicle: carboxymethylcellulose (CMC) 88 % of control and 91 % of control | dose: 400.0 mg/kg/injection, schedule: Q04DX002 (ip), vehicle: carboxymethylcellulose (CMC) 93 % of control | dose: 400.0 mg/kg/injection, schedule: Q04DX003 (ip), vehicle: carboxymethylcellulose (CMC) 93 % of control

O=c1[nH]c2cnn(-c3ccccc3)c2c(=O)n1OS(=O)(=O)c1ccccc1
inactive: dose: 5.0 mg/kg/injection, schedule: Q01DX001 (ip), vehicle: saline 103 % of control | dose: 10.0 mg/kg/injection, schedule: Q01DX001 (ip), vehicle: saline 100 % of control | dose: 20.0 mg/kg/injection, schedule: Q01DX001 (ip), vehicle: saline 100 % of control | dose: 40.0 mg/kg/injection, schedule: Q01DX001 (ip), vehicle: saline 97 % of control | dose: 50.0 mg/kg/injection, schedule: Q01DX001 (ip), vehicle: saline 109 % of control | dose: 80.0 mg/kg/injection, schedule: Q01DX001 (ip), vehicle: saline 97 % of control | dose: 100.0 mg/kg/injection, schedule: Q01DX001 (ip), vehicle: saline 100 % of control | dose: 200.0 mg/kg/injection, schedule: Q01DX001 (ip), vehicle: saline 97 % of control | dose: 400.0 mg/kg/injection, schedule: Q01DX001 (ip), vehicle: saline 103 % of control

C=C(Cl)c1c(C)cc(C)c(CC#N)c1C
inactive: dose: 12.5 mg/kg/injection, schedule: Q01DX009 (ip), vehicle: DMSO 92 % of control | dose: 12.5 mg/kg/injection, schedule: Q04DX003 (ip), vehicle: DMSO 87 % of control | dose: 25.0 mg/kg/injection, schedule: Q01DX009 (ip), vehicle: DMSO 92 % of control | dose: 25.0 mg/kg/injection, schedule: Q04DX003 (ip), vehicle: DMSO 93 % of control | dose: 50.0 mg/kg/injection, schedule: Q04DX003 (ip), vehicle: DMSO 93 % of control | dose: 200.0 mg/kg/injection, schedule: Q04DX003 (ip), vehicle: DMSO 87 % of control

CCC1(O)CC(OC2CC(NC)C(OC3CC(O)C(OC4CC(O)C(O)C(C)O4)C(C)O3)C(C)O2)c2c(cc3c(c2O)C(=O)c2c(O)ccc(O)c2C3=O)C1C(=O)OC (centres undefined)
inactive: dose: 1.6 mg/kg/injection, schedule: Q01DX001 (ip), vehicle: saline 101 % of control | dose: 3.2 mg/kg/injection, schedule: Q01DX001 (ip), vehicle: saline 108 % of control | dose: 6.4 mg/kg/injection, schedule: Q01DX001 (ip), vehicle: saline 124 % of control | dose: 12.8 mg/kg/injection, schedule: Q01DX001 (ip), vehicle: saline 117 % of control | dose: 25.6 mg/kg/injection, schedule: Q01DX001 (ip), vehicle: saline 114 % of control

COc1ccc2c3c1OC1C(O)CCC4C(C2)N(C)CCC341 (centres undefined)
inactive: dose: 75.0 mg/kg/injection, schedule: Q01DX001 (ip), vehicle: saline 92 % of control | dose: 100.0 mg/kg/injection, schedule: Q01DX001 (ip), vehicle: saline with Tween-80 102 % of control | dose: 150.0 mg/kg/injection, schedule: Q01DX001 (ip), vehicle: saline 94 % of control | dose: 200.0 mg/kg/injection, schedule: Q01DX001 (ip), vehicle: saline with Tween-80 102 % of control | dose: 300.0 mg/kg/injection, schedule: Q01DX001 (ip), vehicle: saline 101 % of control

COCc1nc2c(=S)nc[nH]c2n1N
inactive: [3] 105 % of control | [4] 98 % of control

C=C(C)[C@@H]1CC[C@]2(C(=O)OC)CC[C@]3(C)[C@H](CC[C@@H]4[C@@]5(C)CC[C@H](O)C(C)(C)[C@@H]5CC[C@]43C)[C@@H]12
inactive: dose: 100.0 mg/kg/injection, schedule: Q04DX003 (ip), vehicle: alcohol 103 % of control | dose: 200.0 mg/kg/injection, schedule: Q04DX003 (ip), vehicle: alcohol 100 % of control | dose: 400.0 mg/kg/injection, schedule: Q04DX003 (ip), vehicle: alcohol 91 % of control
